Experimental data from US20060178435A1, “Apogossypolone and the uses thereof” (The Regents of the University of Michigan, priority 2004, published 2006).
Like-named read-outs stand apart in the source and are kept apart here.

What was measured:
recombinant human Bcl-2 = recombinant human Bcl-2 (Homo sapiens, UniProt P10415); test: Fluorescence polarization binding assay for Bcl-2 (Bid-FAM peptide displacement)
[1] = system: PC-3 prostate cancer cell line; test: Inhibition of cell growth, MTT assay, PC-3; assay type: cell-based, human; details: for potency relative to (−)-gossypol in inhibition of cell growth: PC-3 cell line, 3-5 independent experiments
Procedure: (§1) A direct comparison of (−)-gossypol, apogossypol and apogossypolone for their activity in inhibition of cell growth in PC-3 and LnCap prostate cancer cell lines was carried out.

[2] = biological target: T1, human Mcl-1 protein (amino acids 171-327) (Homo sapiens, UniProt Q07820); test: Fluorescence polarization binding assay for the Mcl-1 protein (Flu-Bid-21 probe)
T1 construct: The fragment encoding amino acids 171-327 was cloned into the pHis-TEV vector; 8xHis (N); made in house; host or cells: E. coli BL21(DE3)
T1 sequence (Q07820 171-327): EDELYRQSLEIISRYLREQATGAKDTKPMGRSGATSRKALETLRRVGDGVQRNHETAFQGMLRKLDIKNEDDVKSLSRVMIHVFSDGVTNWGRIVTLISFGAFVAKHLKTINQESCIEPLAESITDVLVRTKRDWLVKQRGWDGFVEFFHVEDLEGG

[3] = system: MDA-MB-231 (subclone 2LMP) breast cancer cell line; test: Cell growth inhibition, MDA-MB-231 (subclone 2LMP); assay type: cell-based, human; details: for fold more potent than gossypol: MDA-MB-231 cell line
Procedure: as §1
(§2) Additional cell growth inhibition studies were performed using the MDA-MB-231 (subclone 2LMP), T47D, and MDA-MB-435 breast cancer cell lines. Racemic gossypol, apogossypol, apogossypolone, (+)-apogossypol, (−)-apogossypol, and tetra-acetyl apogossypolone (Formula VIII) were tested as described above.

[4] = system: MDA-MB-435 breast cancer cell line; test: Cell growth inhibition, MDA-MB-435; assay type: cell-based, human
Procedure: as §1, §2

[5] = system: T47D breast cancer cell line; test: Cell growth inhibition, T47D; assay type: cell-based, human
Procedure: as §1, §2

recombinant human Bcl-xL = biological target: T2, recombinant human Bcl-xL (Homo sapiens, UniProt Q07817); test: Fluorescence polarization binding assay for Bcl-xL (Bak-Flu peptide displacement)
T2 construct: fused to a His-tag without the C-terminus hydrophobic tail; His-tag
T2 sequence (Q07817 1-209 limits assumed): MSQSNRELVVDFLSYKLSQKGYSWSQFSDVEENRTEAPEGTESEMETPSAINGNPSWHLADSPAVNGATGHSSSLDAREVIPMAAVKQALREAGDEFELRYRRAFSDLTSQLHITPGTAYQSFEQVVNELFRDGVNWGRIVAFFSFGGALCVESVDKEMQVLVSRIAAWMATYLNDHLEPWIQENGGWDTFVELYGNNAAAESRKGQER
Source text: Fluorescence polarization (FP)-based binding assays for Bcl-2 and Bcl-xL were developed and optimized using recombinant human Bcl-2 and Bcl-xL proteins, a Bid BH3 peptide labeled with 6-carboxyfluorescein succinimidyl ester (FAM) and Bak BH3 peptide labeled with 6-(fluorescein-5(6)-carboxamido) hexanoic acid (Flu). The FP-based binding assays measure the ability of an inhibitor to displace either Bid-FAM or Bak-Flu peptide from Bcl-2 or Bcl-xL protein, respectively. The dose-dependent binding experiments were carried out with serial dilutions of the tested compounds in DMSO. For the Bcl-2 binding assay, a 5 μl sample of the inhibitor and preincubated recombinant His-fused soluble Bcl-2 protein (120 nM) with Bid-FAM peptide (10 nM) in the assay buffer (100 mM potassium phosphate, pH 7.5; 100 μg/ml bovine gamma globulin; 0.02% sodium azide, purchased from Invitrogen, Life Technologies), were added in Dynex 96-well, black, round-bottom plates (Fisher Scientific), to produce a final volume of 125 μl. […] The polarization values were measured after 3-4 hr incubation, using an ULTRA READER (Tecan U.S. Inc., Research Triangle Park, N.C.). The Ki value was calculated using a modified Cheng-Prusoff equation based upon the Kd value for the Bid-FAM peptide to Bcl-2, the measured IC50 value, and the concentrations of the protein and Bid-FAM. […]

[6] = system: LnCap prostate cancer cell line; test: Inhibition of cell growth, MTT assay, LnCap; assay type: cell-based; details: read-out: IC50, inhibition of cell growth
Procedure: as §1

[7] = Storage stability of the sample; assay type: physicochemical
[8] = Maximal tolerated dose (MTD) in mice; assay type: in vivo; details: for MTD: mouse, in vivo
Procedure: To confirm this prediction, the maximal tolerated dose (MTD) of apogossypolone and (−)-gossypol was evaluated in mice using two different routes of administrations (oral and intravenous). For oral administration (oral gavage 5 days/week), the MTD of apogossypolone was above 240 mg/kg while the MTD for (−)-gossypol was about 50 mg/kg. For intravenous administration (every other day and 3 days/week), the MTD of apogossypolone was about 80 mg/kg while the MTD for (−)-gossypol was about 10 mg/kg. In both routes of administration, the MTD of apogossypolone was 8-times better than (−)-gossypol.

PC-3 xenografts = test: Antitumor activity in PC-3 xenograft model, alone or with X-ray irradiation; assay type: in vivo, nude mice; details: for complete tumor regression: Day 57
Procedure: An in vivo study of apogossypolone was carried out using a PC-3 xenograft model in nude mice to evaluate the antitumor activity of apogossypolone alone or in combination with X-ray irradiation. Nude mice with established PC-3 xenografts (150 mm^3 in size) were treated with (1) apogossypolone 200 mg/kg p.o. q.d. 5×4 weeks; (2) fractionated X-ray irradiation to the tumor only, with the animal body shielded, at a dose of 2 Gy q.d. 5×3 weeks, total 30 Gy; and (3) a combination of apogossypolone and radiation.

[9] = FP-based binding assay, Ki calculated from IC50 with modified Cheng-Prusoff equation, read-out: Ki
[10] = Homo sapiens, PC-3 cells, 4-6 day MTT assay, read-out: IC50, inhibition of cell growth
[11] = Homo sapiens, MDA-MB-231, read-out: IC50 (μM) MDA-MB-231
[12] = Homo sapiens, MDA-MB-435, read-out: IC50 (μM) MDA-MB-435
[13] = Homo sapiens, T47D, read-out: IC50 (μM) T47D
[14] = intravenous, every other day and 3 days/week
[15] = MDA-MB-231 (subclone 2LMP), read-out: IC50 (μM) MDA-MB-231
[16] = MDA-MB-435; read-out: IC50 (μM) MDA-MB-435

Sequence of recombinant human Bcl-2 (P10415 92-205 limits assumed): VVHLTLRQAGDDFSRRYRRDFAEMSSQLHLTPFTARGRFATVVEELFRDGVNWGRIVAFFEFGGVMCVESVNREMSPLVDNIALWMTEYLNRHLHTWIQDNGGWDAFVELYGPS

SMILES: CC1=C(C2=C(C)C(=O)c3c(c(C(=O)O)c(O)c(O)c3C(C)C)C2=O)C(=O)c2c(C(=O)O)c(O)c(O)c(C(C)C)c2C1=O [gossypolonic acid]
- Ki (recombinant human Bcl-2; [9]): 0.28 µM
- IC50 [1, 10]: > 10 µM

SMILES: CC[C@H](C)[C@H](NC(=O)[C@H](CC(N)=O)NC(=O)[C@H](CCCNC(=N)N)NC(=O)[C@@H](NC(=O)[C@@H](NC(=O)[C@H](CC(=O)O)NC(=O)[C@H](CCC(=O)O)NC(=O)[C@H](CCC(N)=O)NC(=O)c1ccc2c(c1)C1(OC2=O)c2ccc(O)cc2Oc2cc(O)ccc21)[C@@H](C)CC)[C@@H](C)CC)C(=O)N[C@@H](C)C(=O)N[C@@H](CCCNC(=N)N)C(=O)N[C@@H](Cc1c[nH]cn1)C(=O)N[C@@H](CC(C)C)C(=O)N[C@@H](C)C(=O)N[C@@H](CCC(N)=O)C(=O)N[C@H](C(=O)NCC(=O)N[C@@H](CC(=O)O)C(=O)N[C@@H](CO)C(=O)N[C@@H](CCSC)C(=O)N[C@@H](CC(=O)O)C(=O)N[C@@H](CCCNC(=N)N)C(=O)O)C(C)C [Flu-Bid-21]
- Kd ([2]; probe concentration 0.5 nM, read-out: apparent Kd for Mcl-1): 0.0007 µM
- Kd ([2]; probe concentration 1 nM, saturation experiment, read-out: Kd for Mcl-1): 0.00083 µM
- Kd ([2]; probe concentration 2.5 nM, read-out: apparent Kd for Mcl-1): 0.00105 µM
- Kd ([2]; probe concentration 5 nM, read-out: apparent Kd for Mcl-1): 0.00132 µM

SMILES: Cc1cc2c(C(C)C)c(O)c(O)c(C=O)c2c(O)c1-c1c(C)cc2c(C(C)C)c(O)c(O)c(C=O)c2c1O (racemic) [(±)-Gossypol, gossypol]
- IC50 [3, 11]: 11.1 µM
- IC50 [4, 12]: 11.4 µM
- IC50 [5, 13]: 16.3 µM

SMILES: Cc1cc2c(C(C)C)c(O)c(O)c(C(=O)O)c2c(O)c1-c1c(C)cc2c(C(C)C)c(O)c(O)c(C(=O)O)c2c1O [gossypolic acid]
- Ki (recombinant human Bcl-2; [9]): 0.12 µM
- IC50 [1, 10]: > 10 µM

SMILES: CC1=C(C2=C(C)C(=O)c3c(cc(O)c(O)c3C(C)C)C2=O)C(=O)c2cc(O)c(O)c(C(C)C)c2C1=O (racemic) [apogossypolone, 6,7,6′,7′-Tetrahydroxy-5,5′-diisopropyl-3,3′-dimethyl-[2,2′]binaphthalenyl-1,4,1′,4′-tetraone]
- Ki (recombinant human Bcl-2): 0.076 µM
- Ki (recombinant human Bcl-xL): 1.27 µM
- IC50 ([1]; Homo sapiens, PC-3, read-out: IC50, inhibition of cell growth): 2.2 µM
- potency relative to (−)-gossypol in inhibition of cell growth [1]: 3-4 times
- IC50 ([6]; Homo sapiens, LNCaP): 1.3 µM
- IC50 [3, 11]: 1.27 µM
- fold more potent than gossypol [3]: about 9 fold
- IC50 [4, 12]: 4.82 µM
- fold more potent than gossypol ([4]; MDA-MB-435 cell line): about 2 fold
- IC50 [5, 13]: 9.26 µM
- fold more potent than gossypol ([5]; T47D cell line): about 2 fold
- decomposition on storage ([7]; stored at room temperature for several weeks without the protection of nitrogen): no decomposition was detected
- MTD relative to (−)-gossypol ([8]; both routes of administration): 8 times
- MTD [8, 14]: ~80 mg/kg
- MTD ([8]; oral gavage 5 days/week): > 240 mg/kg
- complete tumor regression (PC-3 xenografts; apogossypolone 200 mg/kg p.o. plus X-ray radiation 2 Gy q.d. 5×3 weeks): seven out of ten
- complete tumor regression (PC-3 xenografts; apogossypolone alone, 200 mg/kg p.o.): zero out of ten
- effect on the tumors (PC-3 xenografts; apogossypolone alone, 200 mg/kg p.o. q.d. 5×4 weeks): limited effect
- enhancement of radiation-mediated tumor inhibition (PC-3 xenografts; combination with X-ray radiation, P<0.0001, two-way ANOVA, n=10): significantly enhanced
- Ki [2]: 0.051 ± 0.02 µM
- fold better binding affinity compared with (−)-gossypol ([2]; Mcl-1): 3.5 fold

SMILES: Cc1cc2c(C(C)C)c(O)c(O)cc2c(O)c1-c1c(C)cc2c(C(C)C)c(O)c(O)cc2c1O [(−)-Apogossypol, (−)-apogossypol]
- IC50 [3, 15]: 2.31 µM
- IC50 [4, 16]: 3.13 µM
- IC50 ([5]; T47D; read-out: IC50 (μM) T47D): 4.26 µM

SMILES: CC(=O)Oc1cc2c(c(C(C)C)c1OC(C)=O)C(=O)C(C)=C(C1=C(C)C(=O)c3c(cc(OC(C)=O)c(OC(C)=O)c3C(C)C)C1=O)C2=O [Tetra acetyl apogossypolone, tetra-acetyl apogossypolone]
- IC50 ([3]; Homo sapiens, MDA-MB-231 (subclone 2LMP), read-out: IC50 (μM) MDA-MB-231): 1.32 µM
- IC50 ([4]; Homo sapiens, MDA-MB-435; read-out: IC50 (μM) MDA-MB-435): 6.29 µM
- IC50 ([5]; Homo sapiens, T47D; read-out: IC50 (μM) T47D): 6.33 µM

SMILES: Cc1cc2c(C(C)C)c(O)c(O)cc2c(O)c1-c1c(C)cc2c(C(C)C)c(O)c(O)cc2c1O [(+)-Apogossypol, (+)-apogossypol]
- IC50 [3, 15]: 8.81 µM
- IC50 [4, 16]: 7.28 µM
- IC50 ([5]; T47D; read-out: IC50 (μM) T47D): 14 µM

SMILES: CC[C@H](C)[C@H](NC(=O)[C@H](CC(N)=O)NC(=O)[C@H](CCCN=C(N)N)NC(=O)[C@@H](NC(=O)[C@@H](NC(=O)[C@H](CC(=O)O)NC(=O)[C@H](CCC(=O)O)NC(=O)[C@@H](N)CCC(N)=O)[C@@H](C)CC)[C@@H](C)CC)C(=O)N[C@@H](C)C(=O)N[C@@H](CCCN=C(N)N)C(=O)N[C@@H](Cc1c[nH]cn1)C(=O)N[C@@H](CC(C)C)C(=O)N[C@@H](C)C(=O)N[C@@H](CCC(N)=O)C(=O)N[C@H](C(=O)NCC(=O)N[C@@H](CC(=O)O)C(=O)N[C@@H](CO)C(=O)N[C@@H](CCSC)C(=O)N[C@@H](CC(=O)O)C(=O)N[C@@H](CCCN=C(N)N)C(=O)O)C(C)C [unlabeled Bid 21mer peptide]
- Ki [2]: 0.0057 ± 0.0011 µM

SMILES: Cc1cc2c(C(C)C)c(O)c(O)cc2c(O)c1-c1c(C)cc2c(C(C)C)c(O)c(O)cc2c1O [apogossypol]
- Ki (recombinant human Bcl-2): 0.2 µM
- potency relative to (−)-gossypol in inhibition of cell growth [1]: as potent as (−)-gossypol
- IC50 [3, 11]: 2.37 µM
- fold more potent than gossypol [3]: about 5 fold
- IC50 [4, 12]: 3.39 µM
- fold more potent than gossypol ([4]; MDA-MB-435 cell line): about 3 fold
- IC50 [5, 13]: 6.51 µM
- fold more potent than gossypol ([5]; T47D cell line): about 2.5 fold
- time in which the sample decomposed ([7]; stored at −20° C. and under nitrogen): ≤ 1 week

SMILES: Cc1cc2c(C(C)C)c(O)c(O)c(C=O)c2c(O)c1-c1c(C)cc2c(C(C)C)c(O)c(O)c(C=O)c2c1O [(−)-gossypol, reference compound]
- IC50 ([1]; PC-3 cells, 4-6 day MTT assay, read-out: IC50, inhibition of cell growth): 6.5 µM
- IC50 ([6]; LnCap cell line): 4.7 µM
- maximal tolerated dose (MTD) [8, 14]: about 10 mg/kg
- maximal tolerated dose (MTD) ([8]; oral gavage 5 days/week): about 50 mg/kg
- Ki ([2]; FP competitive binding, unit inferred, read-out: Ki to Mcl-1): 0.18 ± 0.01 µM
